Biological target: T1, human TRPA1 (Homo sapiens, UniProt O75762)
T1 construct: expressed in transfected cells
Test: Cell-based functional intracellular calcium ([Ca2+]i) assay, Fluo-4/Fluo-8, FlexStation, challenge with reference TRPA1 agonist (FFA, AITC or 4-HNE)
Settings: not given
Procedure, shortened: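 Doxycycline-induced (1 μg/ml) HEK293 expressing human TRPA1, with 5 μM ruthenium red during induction, loaded with Fluo-4 or Fluo-8 plus 2 mM probenecid; FlexStation read at 20-25° C, sometimes with 0.1% BSA.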

T1 sequence (O75762 whole entry): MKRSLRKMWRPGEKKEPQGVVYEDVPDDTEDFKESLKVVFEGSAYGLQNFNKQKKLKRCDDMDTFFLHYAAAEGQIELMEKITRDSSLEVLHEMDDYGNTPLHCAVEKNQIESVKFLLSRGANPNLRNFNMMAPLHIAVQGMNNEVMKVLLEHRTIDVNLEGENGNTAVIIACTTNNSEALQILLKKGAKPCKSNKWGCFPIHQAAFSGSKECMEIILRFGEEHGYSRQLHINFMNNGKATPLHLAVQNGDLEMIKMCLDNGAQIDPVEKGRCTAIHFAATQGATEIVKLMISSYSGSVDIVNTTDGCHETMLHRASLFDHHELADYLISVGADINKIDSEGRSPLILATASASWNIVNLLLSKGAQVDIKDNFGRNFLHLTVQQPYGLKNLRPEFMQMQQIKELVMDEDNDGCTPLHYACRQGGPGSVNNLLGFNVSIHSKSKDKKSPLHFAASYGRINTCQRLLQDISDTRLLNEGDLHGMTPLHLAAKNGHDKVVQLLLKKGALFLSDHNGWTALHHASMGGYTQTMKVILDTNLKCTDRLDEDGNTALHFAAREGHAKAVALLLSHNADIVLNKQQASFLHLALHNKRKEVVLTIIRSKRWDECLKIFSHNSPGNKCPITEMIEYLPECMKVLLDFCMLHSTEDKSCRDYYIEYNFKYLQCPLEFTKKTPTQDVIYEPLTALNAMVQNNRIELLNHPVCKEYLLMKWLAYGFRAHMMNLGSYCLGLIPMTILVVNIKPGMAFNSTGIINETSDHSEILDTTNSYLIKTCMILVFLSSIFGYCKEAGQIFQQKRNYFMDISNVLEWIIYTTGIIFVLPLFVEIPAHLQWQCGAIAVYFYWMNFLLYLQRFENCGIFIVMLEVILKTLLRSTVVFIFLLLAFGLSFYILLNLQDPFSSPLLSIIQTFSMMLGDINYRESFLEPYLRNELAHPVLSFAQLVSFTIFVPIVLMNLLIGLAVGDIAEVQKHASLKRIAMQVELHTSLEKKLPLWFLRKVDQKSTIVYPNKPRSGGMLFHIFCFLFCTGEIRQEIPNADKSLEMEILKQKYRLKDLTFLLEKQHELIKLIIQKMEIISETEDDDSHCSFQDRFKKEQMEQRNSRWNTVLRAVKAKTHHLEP

SMILES | IC50
O=C(c1cc(-c2ccncc2)n(-c2ccc(C(F)(F)F)nc2)n1)N1CCC(N2C(=O)Cc3ccccc32)CC1 [Compound 119] | > 25 µM
CC1COC2(CCN(C(=O)c3cc(-c4ccncc4)n(-c4ccc(C(F)(F)F)cc4)n3)CC2)O1 (stereo not shown) [Compound 71] | > 25 µM
O=C(c1cc(-c2ccncc2)n(-c2cnccn2)n1)N1CCC2(CC1)OCCO2 [Compound 169] | > 25 µM
CC1COC2(CCN(C(=O)c3cc(-c4ccncc4)n(-c4ccc(C(F)(F)F)c(F)c4)n3)CC2)O1 (stereo not shown) [Compound 114] | > 25 µM
CC1COC2(CCN(C(=O)c3cc(-c4ccncc4)n(-c4ccc(F)c(F)c4)n3)CC2)O1 (stereo not shown) [Compound 93] | > 25 µM
O=C(c1cc(-c2ccncc2)n(-c2ccccc2)n1)N1CCC2(CC1)OCCO2 [Compound 31] | > 25 µM
O=C(c1cc(-c2ccncc2)n(-c2ccc(F)cc2F)n1)N1CCC2(CC1)OCCO2 [Compound 154] | > 25 µM
O=C(c1cc(-c2cccnc2)n(-c2ccc(C(F)(F)F)c(F)c2)n1)N1C2CCC1CC1(C2)C(=O)NCN1c1ccc(F)cc1 (stereo not shown) [Compound 193] | 0.001 to 5 µM
O=C(c1cc(-c2ccncc2)n(-c2ccc(C(F)(F)F)cc2)n1)N1CCC2(CC1)OCCO2 [Compound 145] | 5 to 25 µM

Same assay, conditions: HEK293 cells expressing human TRPA1; IC50 class after addition of reference TRPA1 agonist (FFA, AITC or 4-HNE); read-out: human TRPA1-HEK Activity

SMILES | IC50
O=C(c1cc(-c2ccncc2)n(-c2cc(F)c(F)c(F)c2)n1)N1CCC(n2c(=O)[nH]c3ccc(F)c(F)c32)CC1 [Compound 175] | 0.001 to 5 µM
O=C(c1cc(-c2cccnc2)n(-c2cc(F)c(F)c(F)c2)n1)N1CCC(n2c(=O)[nH]c3ccc(F)c(F)c32)CC1 [Compound 198] | 0.001 to 5 µM
O=C(c1cc(-c2ccncc2)n(-c2ccccc2)n1)N1CCN(c2ncccc2C(F)(F)F)CC1 [Compound 34] | > 25 µM
Cc1cc(N2CNC(=O)C23CCN(C(=O)c2cc(-c4cccnc4)n(-c4ccc(F)c(C#N)c4)n2)CC3)cc(C)c1F [Compound 249] | 0.001 to 5 µM
O=C1OC2(CCN(C(=O)c3cc(-c4ccncc4)n(-c4ccc(C(F)(F)F)nc4)n3)CC2)c2ccc(Cl)cc21 [Compound 124] | > 25 µM
O=C(c1cc(-c2ccncc2)n(-c2ccc(C(F)(F)F)nc2)n1)N1CCC2(CC1)C(=O)NCN2c1ccccc1 [Compound 164] | 5 to 25 µM
CN1C(=O)NC2(CCN(C(=O)c3cc(-c4ccncc4)n(-c4ccc(F)c(F)c4)n3)CC2)C1=O [Compound 97] | > 25 µM
O=C(c1cc(-c2cccnc2)n(-c2ccc(C(F)(F)F)c(F)c2)n1)N1CCC2(CC1)C(=O)NCN2c1ccc(F)cc1 [Compound 180] | 0.001 to 5 µM
O=C(c1cc(-c2cccnc2)n(-c2ccc(C(F)(F)F)c(F)c2)n1)N1CCC2(CC1)C(=O)NCN2c1ccc(OC(F)F)cc1 [Compound 188] | 0.001 to 5 µM
O=C(c1cc(-c2ccncc2)n(-c2ccc(F)cc2F)n1)N1CCC2(CC1)C(=O)NCN2c1ccccc1 [Compound 152] | > 25 µM
Cn1c(=O)n(C2CCN(C(=O)c3cc(-c4ccncc4)n(-c4ccc(F)c(F)c4)n3)CC2)c2ccccc21 [Compound 83] | > 25 µM
O=C(c1cc(-c2ccncc2)n(-c2ccc(F)c(F)c2)n1)N1CCN2C(=O)OC[C@@H]2C1 [Compound 94] | > 25 µM
O=C(c1cc(-c2cccnc2)n(-c2ccc(C(F)(F)F)c(F)c2)n1)N1CCC(n2c(=O)[nH]c3ccc(F)c(C(F)(F)F)c32)CC1 [Compound 196] | 0.001 to 5 µM
O=C(c1cc(-c2cnccn2)n(-c2ccc(F)c(C(F)(F)F)c2)n1)N1CCC2(CC1)C(=O)NCN2c1ccc(F)cc1 [Compound 306] | 0.001 to 5 µM
O=C(c1cc(-c2cccnc2)n(-c2ccc(I)c(C(F)(F)F)c2)n1)N1CCC(n2c(=O)[nH]c3ccc(F)c(F)c32)CC1 [Compound 327] | 0.001 to 5 µM
O=C(c1cc(-c2ccncc2)n(-c2ccc(C(F)(F)F)nc2)n1)N1CCC2(CC1)C(=O)NCN2c1ccc(F)cc1 [Compound 120] | 5 to 25 µM
O=C(c1cc(-c2ccncc2)n(-c2ccccc2)n1)N1CCN(c2cc(C(F)(F)F)cc(C(F)(F)F)c2)CC1 [Compound 33] | > 25 µM
O=C1Nc2ccc(F)c(F)c2C2(CCN(C(=O)c3cc(-c4cccnc4)n(-c4ccc(F)c(C(F)(F)F)c4)n3)CC2)O1 [Compound 272] | 0.001 to 5 µM
O=C(c1cc(-c2ccncc2)n(-c2ccc(C(F)(F)F)c(F)c2)n1)N1CCC(c2nc3ccccc3o2)CC1 [Compound 108] | > 25 µM
O=C(c1cc(-c2cccnc2)n(-c2ccc(C(F)(F)F)c(F)c2)n1)N1CCN2C(=O)OC[C@@H]2C1 [Compound 191] | 0.001 to 5 µM
O=C(c1cc(-c2ccncc2)n(-c2ccc(C(F)(F)F)nc2)n1)N1CC(=O)N2CCc3ccccc3C2C1 (stereo not shown) [Compound 125] | > 25 µM
Cc1cc(OC(F)(F)F)ccc1-n1nc(C(=O)N2CCC3(CC2)C(=O)NCN3c2ccc(F)cc2)cc1-c1cccnc1 [Compound 226] | 0.001 to 5 µM
O=C1Nc2ccc(F)cc2C2(CCN(C(=O)c3cc(-c4cccnc4)n(-c4ccc(C(F)(F)F)c(F)c4)n3)CC2)O1 [Compound 230] | 0.001 to 5 µM
O=C(c1cc(-c2cccnc2)n(-c2ccc(F)c(C(F)(F)F)c2)n1)N1CCC(n2c(=S)[nH]c3cc(F)c(F)c(F)c32)CC1 [Compound 298] | 0.001 to 5 µM
O=C(c1cc(-c2ccncc2)n(-c2ccccc2)n1)N1CCC(n2c(=O)[nH]c3ccccc32)CC1 [Compound 25] | > 25 µM
O=C(c1cc(-c2cccnc2)n(-c2ccc(I)cc2)n1)N1CCC2(CC1)C(=O)NCN2c1ccc(F)cc1 [Compound 246] | 0.001 to 5 µM
N#Cc1ccc2c(c1)[nH]c(=O)n2C1CCN(C(=O)c2cc(-c3cccnc3)n(-c3ccc(C(F)(F)F)c(F)c3)n2)CC1 [Compound 228] | 0.001 to 5 µM
O=C(c1cc(-c2cccnc2)n(-c2ccc(C(F)(F)F)c(F)c2)n1)N1CCC2(CC1)C(=O)NCN2c1ccc(F)c(F)c1 [Compound 181] | 0.001 to 5 µM

Tested on: neuropathic pain after L5-L6 spinal nerve injury
Test: Spinal nerve ligation (SNL, Chung) neuropathic pain model, von Frey test
Format: in vivo, rat
Settings: rat, 30 mg/kg i.p., 18 days after L5-L6 spinal nerve injury, von Frey test 2 hrs post-dose; number of experiments in brackets
From the text: This example describes the use of an animal model for testing compounds of the disclosure for their ability to reduce neuropathic pain. For the neuropathic pain model (spinal nerve ligation, SNL) also known as the Chung model, rats are anesthetized with isoflurane and placed on a heating pad. Using aseptic techniques, the L5 and L6 spinal nerves are exposed, ligated and transected (Kim, S. H. and Chung, J. […] Muscle and skin are closed with 4-0 Polydiaxone and wound clips, respectively. Allodynia is assessed 2-4 weeks post SNL surgery and only rats that develop allodynia as defined by a significant decrease in their mechanical threshold using von Frey filaments are used. Tactile allodynia is assessed with calibrated von Frey filaments (Stoelting Co, Wood Dale, Ill.), using an up-down paradigm (Chaplan, S. R., et al. (1994) J. Neurosci. Methods, 53 (1): 55-63). […] Test compounds are administered to the surgically treated rats either orally or I.P, and pain measurements are assessed at post-dosing intervals that correspond to near-maximal peak plasma concentrations for the test compound and specific mode of administration. The action of test compounds 175, 180, and 198 was evaluated in the Chung model after surgery to induce neuropathy. […] (10 ml/kg) was administered as a positive control group. Vehicle and test compounds were dissolved in 10% DMSO, 20% Tween-80 and 40% PEG-400. On the day before treatment, the neuropathic pain basal response was measured by von Frey test and the rats were randomized based on PWT responses. A cut-off of <4.0 g was considered before selection of animals for treatment. On the day of treatment, the test compounds were administered at 30 mg/kg i.p. (10 ml/kg) dissolved in 10% DMSO, 20% Tween-80, 40% PEG-400. […] (10 ml/kg). The mechanical allodynia was measured at 2 hrs post-dose. Results for compound 175 are shown in FIGS. 1 and 2 where data are presented as paw withdrawal threshold (PWT in g) (FIG. 1) and percentage of maximal possible effect (% MPE) (FIG. 2). Each bar represents the mean±SEM of 8 rats.

SMILES | % MPE (% Maximum Possible Effect)
O=C(c1cc(-c2ccncc2)n(-c2cc(F)c(F)c(F)c2)n1)N1CCC(n2c(=O)[nH]c3ccc(F)c(F)c32)CC1 [Compound 175] | 59 ± 10 (3) ^ %
O=C(c1cc(-c2cccnc2)n(-c2cc(F)c(F)c(F)c2)n1)N1CCC(n2c(=O)[nH]c3ccc(F)c(F)c32)CC1 [Compound 198] | 41 (1) %
O=C(c1cc(-c2cccnc2)n(-c2ccc(C(F)(F)F)c(F)c2)n1)N1CCC2(CC1)C(=O)NCN2c1ccc(F)cc1 [Compound 180] | 65 (1) %

Same assay, conditions: rats 18 days after L5-L6 spinal nerve injury, 30 mg/kg i.p., mechanical allodynia 2 hrs post-dose, p<0.001 vs vehicle

SMILES | anti-allodynic effect on paw withdrawal threshold and % MPE
O=C(c1cc(-c2ccncc2)n(-c2cc(F)c(F)c(F)c2)n1)N1CCC(n2c(=O)[nH]c3ccc(F)c(F)c32)CC1 [Compound 175] | significant anti-allodynic effect
O=C(c1cc(-c2cccnc2)n(-c2cc(F)c(F)c(F)c2)n1)N1CCC(n2c(=O)[nH]c3ccc(F)c(F)c32)CC1 [Compound 198] | significant anti-allodynic effect
O=C(c1cc(-c2cccnc2)n(-c2ccc(C(F)(F)F)c(F)c2)n1)N1CCC2(CC1)C(=O)NCN2c1ccc(F)cc1 [Compound 180] | significant anti-allodynic effect

Tested on: paclitaxel-induced neuropathic pain
Test: Paclitaxel chemotherapy-induced neuropathic pain model, von Frey filaments
Format: in vivo
Settings: rat paclitaxel model, 10 mg/kg i.p., 2 hrs post-dose, p<0.05
From the text: Chemotherapy-induced peripheral neuropathy is one of the most serious complications of anti-cancer drug therapy. […] The TRPA1 antagonist, AD_09, has been reported to reduce neuropathic pain in the oxaliplatin model (Nativi, C, et al. (2013) Scientific Reports 3, 2005, 1-10.)
The studies described below provide a method to test compounds of the present invention in the established rat model of paclitaxel-induced neuropathic pain (Flatters, S J and Bennett, G, Pain (2004) 109:150-161) and provide evidence for efficacy for one compound of the present invention. In this procedure, male Sprague-Dawley rats received i.p. injections of 1 mg/kg paclitaxel or vehicle solution every other day for a total of 4 injections (Day 0, 2, 4 and 6). After receiving injections on even-number experimental days, the rats were tested for mechanical and cold allodynia on odd-number experimental days. After the full development of allodynia after the last paclitaxel injection on day 11, one subgroup of the rats (7 rats per treatment group) received an oral dose or i.p. injection of compound of the present invention (e.g., 1, 3, 10 or 30 mg/kg) or its vehicle solution. On the day of treatment, the test compound was administered at 10 mg/kg i.p. (2 ml/kg) dissolved in 10% DMSO, 20% Tween-80, 40% PEG-400. Additional test groups included vehicle control and gabapentin at 10, 30 and 100 mg/kg i.p. (2 ml/kg). The mechanical allodynia was measured at 2 hrs post-dose for compound 271. Mechanical allodynia was measured using the Von Frey filaments to determine the paw withdrawal threshold for each animal and assess the effects of the test compound-s to reduce pain. Rats were tested for mechanical and/or cold allodynia 1 hour after dosing.
Rats can be tested at approximately 2 hour intervals thereafter (time interval dependent on the effect) as long as the effect of TRPA1 antagonist lasts. In some cases, more than one treatment of the compound of the present invention (TRPA1 antagonist) can be given before or after the effect of the previous dose subsides to provide repetitive dosing regimens.

SMILES | anti-allodynic effect on paw withdrawal threshold
O=C(c1cc(-c2cccnc2)n(-c2ccc(F)c(C(F)(F)F)c2)n1)N1CCC(n2c(=O)[nH]c3ccc(F)c(F)c32)CC1 [Compound 271] | significant anti-allodynic effect

Same assay, conditions: rat paclitaxel model, 10 mg/kg i.p., mechanical allodynia (von Frey)

SMILES | % MPE for reversing paclitaxel induced neuropathic pain
O=C(c1cc(-c2cccnc2)n(-c2ccc(F)c(C(F)(F)F)c2)n1)N1CCC(n2c(=O)[nH]c3ccc(F)c(F)c32)CC1 [Compound 271] | 49.1 % MPE
NCC1(CC(=O)O)CCCCC1 [gabapentin, reference compound] | 34.8 % MPE
